pIC50: −log10 of the molar value. Where “and” joins values, the source holds several entries; their conditions need not be identical. Equal entries are not always repeated.
Assays:
[1] = test system: MDA-MB-468 cells; assay: Annexin V-FITC/PI apoptosis assay; type: cell-based; settings: 3 μM
[2] = test system: CT-DNA; assay: Ethidium bromide displacement (fluorescence quenching) assay; type: binding, calf
Description: The competitive binding of compounds IrL1 to CT-DNA was studied via fluorescence spectroscopy using ethidium bromide (EtBr) as the fluorophore. […] Intrinsic binding constant (Kb), Stern–Volmer quenching constant (Ksv) and apparent binding constant (Kapp) were highlighted in Table 2. […]
Ethidium bromide displacement assay
The ethidium bromide (EtBr) displacement assay was carried out to illustrate the mode of binding between the potent compounds with DNA.4 The apparent binding constant (K app) of the complexe IrL1 to Ct-DNA were calculated using ethidium bromide (EtBr) as a spectral probe in 5 mM Tris-HCl buffer (pH 7.4). The values of the apparent binding constant (K app) were obtained by using the equation (iii):
Kapp × [Complex]50 = kEtBr × [EtBr]⋯⋯⋯(iii)
Where KEtBr is the EtBr binding constant (K EtBr = 1.0 x 107 M-1), and [EtBr] = 8 x 10^-6 M.
Stern-Volmer equation was followed for quantitative determination of the Stern-Volmer quenching constant (K SV).5 Origin (8.5) software was used to plot the fluorescence data to obtain linear plot of I0/I vs. [complex]. The value of KSV was calculated from the following […]
Where I0 = fluorescence intensity in absence of complex and I = fluorescence intensities in presence of complex of concentration [Q].
We are acquainted with the fact that serum albumin proteins are the main component. […]

[3] = test system: CT-DNA; assay: DNA binding by UV-visible absorption titration; parameters: species or system calf; settings: for Change in absorbance: on addition of CT-DNA
Description: To design effective chemotherapeutic drugs, it is essential to explore the interactions of metal complexes with DNA. […] DNA base pairs such as purine (adenine and guanine) and pyrimidine (cytosine and thymine) analogues are responsible for electronic transitions. Upon the addition of CT-DNA in increasing concentration from 5 μM to 60 μM, we observed a hyperchromic shift in π–π* region and hypochromic shift at the MLCT region resulting in the appearance of an isosbestic point, which indicates the prevalence of […] interaction of the complex with DNA together with the intercalative mode of interaction (Fig. 6).
Electronic absorption spectroscopy was used to study the binding capacity of the complexes with calf-thymus DNA (Ct-DNA) and competitive binding assay as studied using ethidium bromide (EtBr) as quencher by fluorescence spectroscopy.
DNA binding assay was carried out by using complexes IrL5 in Tris-HCl buffer (5 mM Tris-HCl in water, pH 7.4) in aqueous medium. The concentration of Ct-DNA was calculated from its absorbance intensity at 260 nm and its known molar absorption coefficient value of 6600 M-1cm-1. Equal amount of DNA was added in both the sample and reference in cuvettes.
Titration was carried out by increasing concentration of CT-DNA. On the eve of each measurement, sample was equilibrated with CT-DNA for about 5 min and then absorbance of the complex was measured. The intrinsic DNA binding constant (K b) was calculated using the […]
[DNA] = [DNA] + 1 L L (i) […]
Where [DNA] is the concentration of DNA in the base pairs, εa is the apparent extinction coefficient observed for the complex, εf corresponds to the extinction coefficient of the complex in its free form, and εb refers to the extinction coefficient of the complex when fully bound to DNA. The resultant data were plotted using Origin Lab, version 8.5 to obtain the [DNA]/(ε a-εf) vs. [DNA] linear plot. The ratio of the slope to intercept from the linear fit gave the values of the intrinsic binding constants ( Kb).
UV and Fluorescence study […]
φ = φR × I × OD × η ⋯⋯⋯(ii)

[4] = test system: MDA-MB-468 cells; assay: MTT in vitro cytotoxicity assay, triple negative breast cancer cells; type: cell-based; settings: MDA-MB-468, MTT, 48 h
Description: The in vitro cytotoxicity of complexes IrL1–IrL5 and cisplatin were investigated using the typical 3-(4,5-dimethylthiazol-2-yl)-2,5-diphenyltetrazolium bromide (MTT) assay protocol against a panel of triple negative cancer cell line MDA-MB-468. The cells were initially incubated with the all test compounds at concentrations ranging from 0.5–50 μM for 48 h in vitro.
Cytotoxicity study of all the synthesized compounds against triple negative breast cancer cells MDA-MB-468 and immortalized human keratinocyte cell line HaCaT were done with a drug incubation period of 48 h by following standard procedure that were mentioned in ESI. ^† Preliminary studies were done to understand the mode of action of the complex to induce cytotoxicity using flow cytometric methods.
For doing the cell culture the cells were retained in DMEM media (Gibco), added with 10% fetal bovine serum (Himedia, India), 1% penicillin and streptomycin and 1% of Glutmax (Gibco, Thermo Scientific, USA) at 37°C in 5% CO2. When the cells attained 70%-80% confluency they were trypsinized using 0.25% trypsin-EDTA (Thermo Fisher Scientific, […]
In vitro cytotoxicity study was measured by standard MTT assay protocol.1 First the prepared complexes (IrL1-IrL5) were dissolved in 0.1% DMSO followed by dilution with DMEM medium. One cancer cell lines i.e. triple negative breast cancer cells (MDA-MB-468) and one normal cell line i.e. immortalized human keratinocyte cell line (HaCaT) were used for this assay. Approximately 1×10^4 cells per well were cultured in 100 μl of a growth medium in 96-well plates and then incubated under 5% CO2 atmosphere at 37°C temperature. Then the incubated cells were treated with different concentrations of the complexes in the volume of […]. The cisplatin was taken as standard positive control for this experiment. The Cells which were in the control wells, also engaged the same volume of medium containing 0.1% DMSO. After 48 h, the medium was superfluous and cell cultures were again incubated with 100 μL of MTT reagent (1 mg/ml) for 5 h at 37 °C. Then the resultant suspension was kept on micro vibrator for 10 min and the absorbance was recorded at λ = 570 nm in ELISA plate reader. The experiment was also performed in triplicate. The data were represented as the growth inhibition percentage i.e. % growth inhibition = 100 − [(AD × 100)/AB], where AD, measured absorbance in wells which contain samples and AB, measured absorbance for blank wells (cells with a medium and a vehicle). […]

For “[Iridium(III)-Cp*-2-(naphthalen-1-yl)-1H-imidazo[4,5-f][1,10]phenanthroline]PF6 [IrL1]”, the early apoptotic cells [1] was roughly 34.89%, the viable cell population [1] was roughly 51.37% and the “Ksv, Stern–Volmer quenching constant” value ([2]; EtBr-bound CT-DNA) was 22000 M⁻¹. The “Kapp, apparent DNA binding constant” value ([2]; competitive displacement of EtBr) was 2500 M⁻¹, the “Δε (% change in hypochromism or hyperchromism)” value ([3]; λmax 250 nm, hyperchromism) was 60% and the Change in absorbance ([3]; λmax 250 nm) was “Hyperchromism”. The “Δε (% change in hypochromism or hyperchromism)” value ([3]; λmax 305 nm, hypochromism) was 25%, the Change in absorbance ([3]; λmax 305 nm) was “Hypochromism” and the pIC50 [4] was 5.43 and 5.44.

Reference: article PMC9016803, “Mitochondria-targeted half-sandwich iridium(III)-Cp*-arylimidazophenanthroline complexes as antiproliferative and bioimaging agents against triple negative breast cancer cells MDA-MB-468” (RSC Advances, 2022)
